Measured values from US20260285816A1, “Piperazinyl-Modified Quinazolinyl-Aryl Urea Derivative, And Preparation Method And Use Thereof” (Guangxi Normal University, priority 2025, published 2026).
“Also recorded” adds a separate entry of the source. Like-named read-outs stand apart in the source and are kept apart here.

Columns and labels:
[1] = tested on: BxPC-3 cells; experiment: CCK-8 anti-proliferative assay, BxPC-3; type: cell-based, human; details: for IC50: Homo sapiens, BXPC-3, co-incubated 48 h, read-out: Anti-proliferative activity (IC50 ± standard deviation) BxPC-3
In short: (§1)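 Absorbance at 450 nm after CCK-8 labelling (1–4 h, varying by cell line) gave inhibition relative to untreated control, from which IC50 values were derived. Compounds were applied at final concentrations of 1 to 30 μM in triplicate wells once cultures reached 70% confluency, with co-incubation for designated durations.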

[2] = tested on: 5637 cells; experiment: CCK-8 anti-proliferative assay, 5637; type: cell-based, human; details: Homo sapiens
In short: (§2)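 Dose range 1–30 μM final (nine levels, n=3), added at 70% confluency to 5,000 cells/well cultured at 37° C., 5% CO2. CCK-8 incubation 1-4 h depending on cell type.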

[3] = tested on: T24 cells; experiment: CCK-8 anti-proliferative assay, T24; type: cell-based, human; details: Homo sapiens, T-24, co-incubated 48 h, read-out: Anti-proliferative activity (IC50 ± standard deviation) T24
In short: as §1

[4] = tested on: UM-UC-3 cells; experiment: CCK-8 anti-proliferative assay, UM-UC-3; type: cell-based, human; details: Homo sapiens, UMUC3, co-incubated 48 h, read-out: Anti-proliferative activity (IC50 ± standard deviation) UM-UC-3
In short: as §2

[5] = tested on: A549 cells; experiment: CCK-8 anti-proliferative assay, A549; type: cell-based, human; details: for IC50: Homo sapiens, A549, co-incubated 48 h, read-out: Anti-proliferative activity (IC50 ± standard deviation) A549
In short: as §2

[6] = tested on: Hep G2 cells; experiment: CCK-8 anti-proliferative assay, Hep G2; type: cell-based, human; details: Homo sapiens, HepG2, co-incubated 48 h, read-out: Anti-proliferative activity (IC50 ± standard deviation) Hep G2
In short: as §1

[7] = tested on: embryonic lung fibroblasts (WI-38); experiment: CCK-8 anti-proliferative assay, normal cells WI-38; type: cell-based, human; details: Homo sapiens, read-out: Anti-proliferative activity (IC50 ± standard deviation) WI-38
In short: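 Logarithmic-phase cells are plated at 5,000 cells per well and incubated at 37° C. with 5% CO2. At 70% confluency, compound is added at nine final concentrations from 1 to 30 μM. After exposure, CCK-8 is added and OD at 450 nm measured to calculate IC50.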

[8] = tested on: MG-63 cells; experiment: CCK-8 anti-proliferative assay, MG-63; type: cell-based, human; details: Homo sapiens, MG-63
In short: as §1

[9] = tested on: MCF-7 cells; experiment: CCK-8 anti-proliferative assay, MCF-7; type: cell-based, human; details: for IC50: Homo sapiens, MCF7, co-incubated 48 h, read-out: Anti-proliferative activity (IC50 ± standard deviation) MCF-7
In short: as §2

[10] = tested on: SK-OV-3 cells; experiment: CCK-8 anti-proliferative assay, SK-OV-3; type: cell-based, human; details: Homo sapiens, SK-OV-3, co-incubated 48 h, read-out: Anti-proliferative activity (IC50 ± standard deviation) SK-OV-3
In short: as §2

[11] = tested on: J82 cells; experiment: CCK-8 anti-proliferative assay, J82; type: cell-based, human; details: Homo sapiens, J82
In short: as §2

[12] = tested on: PANC-1 cells; experiment: CCK-8 anti-proliferative assay, PANC-1; type: cell-based, human; details: for IC50: Homo sapiens, PANC-1, co-incubated 48 h, read-out: Anti-proliferative activity (IC50 ± standard deviation) PANC-1
In short: as §1

[13] = tested on: immortalized ureteral epithelial cells (SV-HUC-1); experiment: CCK-8 anti-proliferative assay, normal cells SV-HUC-1; type: cell-based, human; details: Homo sapiens, SV-HUC1, normal cells, co-incubated 48 h, read-out: Anti-proliferative activity (IC50 ± standard deviation) SV-HUC-1
In short: as §2

[14] = tested on: 143B cells; experiment: CCK-8 anti-proliferative assay, 143B; type: cell-based, human; details: Homo sapiens, 143B
In short: as §1

[15] = tested on: HeLa cells; experiment: CCK-8 anti-proliferative assay, HeLa; type: cell-based, human; details: for IC50: Homo sapiens, HeLa, co-incubated 48 h, read-out: Anti-proliferative activity (IC50 ± standard deviation) HeLa
In short: as §2

[16] = type: physicochemical
Method: 0.9% normal saline was added thereto to obtain a solution, which was sterilized under UV light for 30 min. Administration volume was 10 mL/kg per mouse. […]
A resulting mixture was sterilized under UV light for 30 min. Administration volume was 10 mL/kg per mouse.

[17] = read-out: IC50 values, osteosarcoma cells MG-63
[18] = read-out: IC50 values, osteosarcoma cells 143B

For `COc1cc2ncnc(NCc3cccc(NC(=O)Nc4ccc(C(C)(C)C)cc4)c3)c2cc1OCCCCCCN1CCN(CCN2CCOCC2)CC1` [Compound 8-1j, N-(3-(((7-methoxy-6-((6-(4-(2-morpholinoethyl)piperazin-1-yl)hexyl)oxy)quinazolin-4-yl)amino)methyl)phenyl)-N′-(4-tert-butylphenyl)urea], the “Sensitivity of BxPC-3 / anti-proliferative activity against BxPC-3, in words” value [1] was “sensitive; also recorded: less sensitive”, the IC50 ([1]; Table 7) was 6.53 ± 0.48 µM and the IC50 ([2]; Table 6, co-incubated 48 h, read-out: Anti-proliferative activity (IC50 ± standard deviation) 5637) was 3.29 ± 0.27 µM. It also gave an IC50 ([2]; read-out: IC50 values against 5637 cells) of 3.29 ± 0.27 µM, an IC50 ([3]; Table 6) of 4.57 ± 0.42 µM and an IC50 ([4]; Table 6) of 3.53 ± 0.39 µM. For the same molecule, the IC50 ([5]; Table 8) was 4.39 ± 0.34 µM, the IC50 ([6]; Table 8) was 3.83 ± 0.36 µM and the IC50 ([7]; WI-38, Table 9, co-incubated 48 h) was 10.3 ± 0.36 µM. The IC50 ([8]; Table 7, co-incubated 48 h, read-out: Anti-proliferative activity (IC50 ± standard deviation) MG-63) was 4.17 ± 0.38 µM, the IC50 [8, 17] was < 5 µM and the “Sensitivity of MCF-7, in words” value [9] was “sensitive”. The IC50 ([9]; Table 8) was 3.25 ± 0.35 µM, the IC50 ([10]; Table 9) was 5.04 ± 0.32 µM and the IC50 ([11]; Table 6, co-incubated 48 h, read-out: Anti-proliferative activity (IC50 ± standard deviation) J82) was 2.98 ± 0.27 µM. The IC50 ([11]; read-out: IC50 values against J82 cells) was 2.98 ± 0.27 µM, the IC50 ([12]; Table 7) was 7.72 ± 0.66 µM and the IC50 ([13]; Table 9) was 8.03 ± 0.41 µM. The IC50 ([14]; Table 7, co-incubated 48 h, read-out: Anti-proliferative activity (IC50 ± standard deviation) 143B) was 3.43 ± 0.25 µM, the IC50 [14, 18] was < 5 µM and the IC50 ([15]; Table 8) was 4.33 ± 0.45 µM. The “Solubility in co-solvents (PEG400+normal saline, PEG400+PBS, PEG400+5% dextrose injection)” value [16] was “superior solubility” and the “Solubility in the PEG400-0.9% normal saline mixture” value ([16]; PEG400:0.9% normal saline 3:1) was “desirable solubility”.

In the case of `CCc1cccc(CC)c1NC(=O)Nc1cccc(CNc2ncnc3cc(OC)c(OCCCCCCN4CCC(CN5CCN(c6ccccn6)CC5)CC4)cc23)c1` [Compound 8-2h, N-(3-(((7-methoxy-6-((6-(4-((4-(pyridin-2-yl)piperazin-1-yl)methyl)piperidin-1-yl)hexyl)oxy)quinazolin-4-yl)amino)methyl)phenyl)-N′-(2,6-diethylphenyl)urea], the “Sensitivity of BxPC-3 / anti-proliferative activity against BxPC-3, in words” value [1] is reported as “significantly stronger anti-proliferative activity against BxPC-3 than positive control Sora; also recorded: heightened sensitivity; also recorded: very sensitive; also recorded: highly sensitive”, the IC50 ([1]; Table 11) is reported as 3.66 ± 0.24 µM and the IC50 ([2]; Table 10, co-incubated 48 h, read-out: Anti-proliferative activity (IC50 ± standard deviation) 5637) is reported as 4.18 ± 0.22 µM. For the same molecule, the IC50 ([3]; Table 10) was 4.21 ± 0.36 µM, the IC50 ([4]; Table 10) was 5.09 ± 0.35 µM and the “Activity against A549 versus the 8-1 to 8-23 series, in words” value [5] was “significantly enhanced activity against A549”. The IC50 ([5]; Table 13) was 3.41 ± 0.26 µM, the IC50 ([6]; Table 12) was 4.66 ± 0.38 µM and the IC50 ([7]; WI-38, Table 13, co-incubated 48 h) was 9.58 ± 0.43 µM. The IC50 ([8]; Table 11, co-incubated 48 h, read-out: Anti-proliferative activity (IC50 ± standard deviation) MG-63) was 3.97 ± 0.26 µM, the IC50 [8, 17] was < 5 µM and the IC50 ([9]; Table 12) was 5.38 ± 0.35 µM. The IC50 ([10]; Table 12) was 6.12 ± 0.55 µM, the IC50 ([11]; Table 10, co-incubated 48 h, read-out: Anti-proliferative activity (IC50 ± standard deviation) J82) was 4.42 ± 0.29 µM and the “Sensitivity of PANC-1, in words” value [12] was “sensitive; also recorded: heightened sensitivity”. It also gave an IC50 ([12]; Table 11) of 4.88 ± 0.29 µM, an IC50 ([13]; Table 13) of 9.53 ± 0.83 µM and an IC50 ([14]; Table 11, co-incubated 48 h, read-out: Anti-proliferative activity (IC50 ± standard deviation) 143B) of 4.91 ± 0.36 µM. The IC50 [14, 18] was < 5 µM, the “Sensitivity of HeLa, in words” value [15] was “sensitive” and the IC50 ([15]; Table 12) was 3.29 ± 0.18 µM. For the same molecule, the “Solubility in co-solvents (PEG400+normal saline, PEG400+PBS, PEG400+5% dextrose injection)” value [16] was “superior solubility”.
